Patent US7780966B2, “Artificial invaplex” (The United States of America as represented by the …, priority 2007, dated 2010)

Columns and labels:
IpaC = conditions: in vivo
IpaB = conditions: in vivo

ovalbumin was tested, and the “Anti-IpaC Serum IgG (geomean endpoint titer)” value (IpaC) was 90 ± 0 and the “Anti-IpaB Serum IgG (geomean endpoint titer)” value (IpaB) was 90 ± 0.
